Ends that are not written are not given here.
Key:
STAT3 = experiment: Western blot of STAT3 phosphorylation in C2C12 cells; format: cell-based, mouse; details: C2C12 myoblast cells, 5 to 20 min after stimulation
Description: Cell lysis, fractionation, and SDS-PAGE were conducted in accordance with procedures described previously (Yang Y C et al., BMC Cancer 2007; 7:216). Antibodies used in this study were for Phospho-Stat3 and STAT3 (1:1000-fold dilution). Proteins of interest were detected using the appropriate IgG-HRP secondary antibody (Santa Cruz Biotechnology) and ECL reagent (Amersham Biosciences).

Neuro-2a cells = experiment: Glutamate-induced Neuro-2a cell death (LDH release); format: cell-based, mouse; details: glutamate-induced cell death
Description: Neuro-2a cells were seeded in 48-well culture plates (1.5×10^5 cells/well) for 24 h, and then cultured in 0.5 ml fresh 2% FBS-DMEM medium containing 20 μM of the present peptide (7 μg of 6-mer in 0.5 ml medium) for further 4 h. Subsequently, 100 mM glutamate (from 1 M stock and PBS as solvent) was added to cells for further 6 h. Glutamate-induced cell death was quantitatively assessed by measuring lactate dehydrogenase (LDH) activity released into the culture medium by damaged cells. LDH activity was measured using PicoProbe™ LDH-Cytotoxicity Fluorometric Assay Kit (Catalog #K314-500; BioVision) according to the instruction manuals. LDH activity was estimated using an automated microplate reader (UVmax; Molecular Devices, San Francisco, CA) by measuring the fluorescent product (Ex/Em=535/587 nm).
Briefly, cells were pretreated with the designated peptide (i.e., any of SEQ ID NOs: 2 to 11) for 4 h and then treated with 100 mM glutamate for 6 h. The cell death was detected by a commercial lactate dehydrogenase (LDH) Cytotoxicity Assay Kit. Results are depicted in FIG. 1.

[1] = tested on: C57BL/6 mice, dry eye induced in controlled environment chamber (CEC); experiment: Dry eye animal model, corneal fluorescein staining; format: in vivo, mouse; details: mice 14 days in CEC, then treatment for 4 days
Description: Dry eyes were induced by placing mice in a controlled environment chamber (CEC) for 14 days in accordance with procedures previously described by Barabino et al (IVOS (2005) 46(8), 2766-2771). Mice placed in the CEC were exposed to a condition, in which relative humidity (RH) was maintained at <25%, temperature at 20-22° C., and airflow at about 15 L/min, for 12 hours per day. Control mice were kept in a normal environment (RH>50%, no air flow, temperature of 20-22° C.) for the same duration.
A common artificial tear formulation, 1% carboxymethylcelllulose (CMC) dissolved in balanced salt solution (BSS) was used as the peptide vehicle. Peptide (100 μM, about 0.7 μg peptide in 10 μl eye drop used for treating one eye) or 1% CMC vehicle was topically administered to eyes three times a day. To test whether the present synthetic peptide could exert any therapeutic action on dry eyes, mice were housed at CEC for 14 days without topical treatment, and then were treated with the present peptide for 4 days.
Animals were anesthetized by an intraperitoneal injection of a mixture of zoletil (6 mg/kg) and xylazine (3 mg/kg). Corneal epithelial injury was determined by staining with topical fluorescein (Fluor-I-Strip, Ayerst Laboratories, Philadelphia, PA). Corneal fluorescein staining was examined with a slit-lamp biomicroscope under cobalt blue light and photographed with a digital camera. Dye staining of the cornea was scored in a blinded manner as follows: score 0 for no punctuate staining; score 1 when less than one third of the cornea was stained; score 2 when two thirds or less was stained; and score 3 when more than two thirds was stained (Horwath-Winter J 2013).
Briefly, mice were housed at controlled environment chamber (CEC) for 14 days (set as Day 0) to induce corneal surface disruption. Corneal fluorescein staining was used to estimate the corneal surface injury and the animal with a staining score of 2 (after mice placed at CEC for 14 days) was subjected to peptide treatment. The 6-mer variant peptide formulation for the treatment of DED was described in Methods. […]

survivin mRNA = experiment: Real-time qPCR of survivin mRNA in C2C12 cells; format: cell-based, mouse; details: C2C12 cells in low serum media, 20 μM peptide, 6 h
Description: (§1) Total RNA was extracted from cells using TRIzol (Invitrogen). Synthesis of cDNA was performed with 1 μg of total RNA at 50° C. for 50 min using oligo(dT) primers and reverse transcriptase (Superscript III; Invitrogen). Briefly, quantification of cDNA was performed in the LightCycler (Roche, Mannheim, Germany) using the DNA Master SYBR Green I kit (Roche) with the following cycling conditions: initial denaturation at 95° C. for 10 min, followed by 40 cycles at 95° C. for 10 s, 60° C. for 10 s, and 72° C. for 10 s and a 5-min terminal incubation at 72° C. The data were calculated with AACt. The expression was then normalized against the expression of glyceraldehyde-3-phosphate dehydrogenase (GAPDH). The PCR primers were mouse Survivin sense, 5′-[…]-3′ (SEQ ID NO: 27), anti-sense, 5′-[…]-3′ (SEQ ID NO: 28) (accession number: NM_001012273.1; PCR product: 136 bp); mouse GAPDH sense, 5′-[…]-3′ (SEQ ID NO: 29), anti-sense, 5′-[…]-3′ (SEQ ID NO: 30) (NM_001289726.1; 149 bp). For analysis rabbit inflammatory gene expression, The PCR primers were rabbit TNF-αsense, 5′-[…]-3′ (SEQ ID NO: 31), anti-sense, 5′-[…]-3′ (SEQ ID NO: 32) (accession number: NM 001082263.1); rabbit IL-1βsense, 5′-[…]-3′(SEQ ID NO: 33), anti-sense, 5′-[…]-3′ (SEQ ID NO: 34) (NM 001082201.1); rabbit GAPDH sense, 5′-[…]-3′ (SEQ ID NO: 35), anti-sense, 5′-[…]-3′ (SEQ ID NO: 36) (accession number:NM 001082253.1). The cycle threshold (Ct) values of the PCR product and a GAPDH (Glyceraldehyde 3-phosphate dehydrogenase) control mRNA were used to calculate relative quantities of mRNA.
Similar to the approach in Example 1.2.1, the expression level of survivin mRNA in C2C12 cells was used as an indicator for the function of the 6-mer variants in Tables 3 to 5. Briefly, C2C12 cells in low serum media were treated with 20 μM the 6-mer variants for 6 h. […] The results also confirmed that alanine substation at the glutamic acid (E) residues would severely impair the 6-mer activity.

TNF-α mRNA = experiment: Hyperosmotic stress-induced TNF-α gene expression in rabbit corneal epithelial cells (qPCR); format: cell-based; details: 20 μM peptide 6 h, then hyperosmotic medium (463 mOsM) 3 h, solvent 12.8-fold
Description: as §1
(§2) Limbal stem epithelial cells (LSEC) were isolated from 6-month-old New Zealand white rabbits and continuously cultivated for 14 days byDMEM/F-12basalmedium based cell-suspension culture to achieve corneal-liked epithelial cell differentiation as previously described (Ho et al., Stem Cells. 2013; 31:1775). […] After 3 h, quantitative real-time PCR was used to estimate HOP-induced Tumor necrosis factor (TNF)-α and nterleukin-1 beta (IL-1β) expressions. […]

[2] = tested on: Sprague-Dawley rats, retinal ischemia/reperfusion (I/R) injury; experiment: TUNEL staining of I/R-injured rat retina (20 h); format: in vivo; details: for Number of TUNEL-positive cells in retina: subconjunctival injection 1 mM 4 h before I/R, 20 hours after I/R injury, Vehicle + I/R 27.2 ± 2.7; for I/R-induced retinal cell apoptosis (TUNEL staining), in words: subconjunctival injection prior to I/R, 20 h reperfusion
Description: Experimental procedures were approved by the Mackay Memorial Hospital Review Board (Taiwan, R.O.C.). All surgeries were performed under aseptic conditions. Adult 10-week-old male Sprague-Dawley rats (initial body weight=312±11 g) were anesthetized by an intraperitoneal injection of xylazine (10 mg/kg). Peptide was dissolved in 0.85% normal saline to 1 mM and delivered by the subconjunctival injection of 100 μL peptide through a 31-Gneedle with a micro-syringe before the induction of I/R. Normal saline was as a vehicle control. Rat I/R was performed after peptide or vehicle injection for 4 h. Pupils were dilated with 0.5% tropicamide and 0.5% phenylephrine. Body temperature was maintained at 37° C. using a heating blanket After dilation of the pupil, the anterior chamber of the right eye was cannulated with a 27-gauge needle connected to a physiological saline reservoir. The intraocular pressure (IOP) was raised to 110 mmHg by keeping the reservoir at 150 cm above the eye, and retinal ischemia was confirmed by observing whitening of the iris and the loss of the red reflex of the retina. After 90 min of ischemia, the cannulating needle was withdrawn and the IOP was returned to normal pressure, resulting in recovery of the blood supply from the retinal artery and reperfusion injury induced. The reperfusion was evident by the return of the red reflex. Corneal analgesia was achieved using 1 or 2 drops of 0.4% oxybuprocaine hydrochloride, and Ofloxacin ophthalmic gel (0.3%) was applied topically to the eye before and after the procedure. Only the right eye was used in all experiments. A sham procedure was performed at left eye served as an intra-animal control.
After I/R for 20 h, rats (n=6 in each group) were euthanized by an overdose of pentobarbital. Enucleated eyeballs were fixed in 4% PFA for 24 h at 4° C. Fixed retinal tissues were embedded in paraffin. To identify apoptosis of retinal cells, 5 μm sections thick cut through the optic disc, de-paraffinized, rehydrated, incubatedwith 20 μg/mL proteinase K for 10 min, and immunofluorescence staining of apoptotic cells was performed using a terminal deoxynucleotidyl transferase(TdT)-mediated dUTP nick-end labeling (TUNEL)-based kit (Roche Molecular Biochemicals, Indianapolis, IN) according to the manufacturer's instructions. Nuclei were located by counterstaining with Hoechst 33258 for 7 min Sections were observed under an epifluorescence microscope (Zeiss Axioplan 2 imaging; Zeiss, Oberkochen, Germany) equipped with a charge-coupled device (CCD) camera (Zeiss AxioCam HRm, Zeiss) (×400, 6 fields/sample), and quantification was performed using Axiovert software (Zeiss AxioVision Release 4.8.2, Zeiss). Three sections per eye were averaged and the mean of six eyes was recorded as the representative value for each group.
In this example, the neuroprotective effect of the 6-mer variant peptides on neural retina cells and retinal capillary system was investigated using a rat model of I/R injury described in the “Material and Methods” section. Briefly, 6-mer variant peptide (1 mM, 120 μl) was injected into the subconjunctival space of Sprague-Dawley rats for 4 h before the induction of I/R. Then, I/R injury was induced in rat retinas by increasing the intraocular pressure (IOP) in the eye to 110 mmHg for 90 min, followed by 20 h of reperfusion. Subsequently, the level of retinal cell apoptosis was evaluated using TUNEL staining. In addition, the retinal morphology was analyzed with H&E staining 14 days after the I/R injury. Results are summarized in FIGS. 6 to 10, and Tables 6 to 9.

IL-1β mRNA = experiment: Hyperosmotic stress-induced IL-1β gene expression in rabbit corneal epithelial cells (qPCR); format: cell-based; details: 20 μM peptide 6 h, then hyperosmotic medium (463 mOsM) 3 h, solvent 4.5-fold
Description: as §1, §2

| Substance | STAT3 phosphorylation (immunoblot) (STAT3) | protective effect on Neuro-2a cells (neuroprotective activity), in words (Neuro-2a cells) | therapeutic effect on corneal fluorescein staining, in words [1] | survivin mRNA induction, in words (survivin mRNA) | mRNA expression of TNF-α, in words (TNF-α mRNA) | Number of TUNEL-positive cells in retina [2] | I/R-induced retinal cell apoptosis (TUNEL staining), in words [2] | survivin mRNA induction compared to solvent control (survivin mRNA) | mRNA expression of IL-1β, in words (IL-1β mRNA) |
| --- | --- | --- | --- | --- | --- | --- | --- | --- | --- |
| NH2-(D-Ser)-Leu-Gly-Ala-Glu-COOH (SLGAE; HELM PEPTIDE1{[dS].L.G.A.E}$$$$V2.0; SMILES CC(C)C[C@H](NC(=O)[C@H](N)CO)C(=O)NCC(=O)N[C@@H](C)C(=O)N[C@@H](CCC(=O)O)C(=O)O) [5-mer dS] | possessed no such effect | lacks any significant neuroprotective activity | – | – | – | – | – | – | – |
| NH2-Ser-Leu-Gly-(D-Ala)-Glu-Gln-COOH (SLGAEQ; HELM PEPTIDE1{S.L.G.[dA].E.Q}$$$$V2.0; SMILES CC(C)C[C@H](NC(=O)[C@@H](N)CO)C(=O)NCC(=O)N[C@H](C)C(=O)N[C@@H](CCC(=O)O)C(=O)N[C@@H](CCC(N)=O)C(=O)O) [6-mer dA] | – | – | had no therapeutic effect | hamper the survivin gene induction activity significantly | – | – | – | – | – |
| NH2-Ala-Leu-Gly-Ala-Glu-Gln-COOH (ALGAEQ; not fully specified (N-terminus, C-terminus); printed as NH2-Ala-Leu-Gly-Ala-Glu-Gln-COOH) [6-mer Sa] | – | – | – | – | apparently repressed the mRNA expression of TNF-α and IL-1β | 12.6 ± 1.1 /200 μm | reduced the retinal cell apoptosis induced by I/R | 1.7 fold | apparently repressed the mRNA expression of TNF-α and IL-1β |
| NH2-The-Leu-Gly-Ala-Glu-Gln-COOH (TLGAEQ; not fully specified (N-terminus, C-terminus); printed as NH2-The-Leu-Gly-Ala-Glu-Gln-COOH) [6-mer St] | – | – | had no therapeutic effect | severely impaired the survivin mRNA induction | – | 21.8 ± 1.8 /200 μm | had no such effect | – | – |
| NH2-Ser-Leu-Val-Ala-Glu-Gln-COOH (SLVAEQ; not fully specified (N-terminus, C-terminus); printed as NH2-Ser-Leu-Val-Ala-Glu-Gln-COOH) [6-mer Gv] | – | – | – | – | apparently repressed the mRNA expression of TNF-α and IL-1β | 10.4 ± 1.4 /200 μm | reduced the retinal cell apoptosis induced by I/R | 2.3 fold | apparently repressed the mRNA expression of TNF-α and IL-1β |

— patent publication US12221494B2, “Short synthetic peptides and their uses for treating retinal degenerative diseases and/or tissue injuries” (MacKay Memorial Hospital, priority 2019, dated 2025)
